system: Pfeiffer cells, lymphoma cells having EZH2 mutation (A677G); assay: Proliferation inhibition of cells of hematologic malignancies (CCK-8, 11 days); assay type: cell-based; conditions: 11 days culture, read-out: Cell proliferation inhibitory effect (IC50)
Summary of the method: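 Pfeiffer lymphoma cells (EZH2 A677G) in RPMI1640 with 10% FBS were seeded at 10,000 cells/well and exposed to test material for 11 days, with compound replaced every 3–4 days. Viability was read by CCK-8 absorbance at 450 nm, and IC50 was derived by non-linear regression curve fitting.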

SMILES | IC50 [µM]
CSc1cc(C)[nH]c(=O)c1CNC(=O)c1cc(-c2ccc(N3CCOCC3)nc2)c2c(c1C)OC(C)(C1CCN(CC(F)(F)F)CC1)O2 (stereo not drawn) [Compound 63, 2,4-dimethyl-N-((6-methyl-4-(methylthio)-2-oxo-1,2-dihydropyridin-3-yl)methyl)-7-(6-morpholinopyridin-3-yl)-2-(1-(2,2,2-trifluoro)piperidin-4-yl)benzo[d][1,3]dioxole-5-carboxamide] | ≥ 0.1
CSc1cc(C)[nH]c(=O)c1CNC(=O)c1cc(-c2cnc(N3CCOCC3)nc2)c2c(c1C)OC(C)(C1CCN(CC(F)(F)F)CC1)O2 (stereo not drawn) [Compound 70, 2,4-dimethyl-N-((6-methyl-4-(methylthio)-2-oxo-1,2-dihydropyridin-3-yl)methyl)-7-(2-morpholinopyrimidin-5-yl)-2-(1-(2,2,2-trifluoro)piperidin-4-yl)benzo[d][1,3]dioxole-5-carboxamide] | ≥ 0.1
CCN1CCC(C2(C)Oc3c(-c4cnc(N5CCOCC5)nc4)cc(C(=O)NCc4c(SC)cc(C)[nH]c4=O)c(C)c3O2)CC1 (stereo not drawn) [Compound 74, 2-(1-ethylpiperidin-4-yl)-2,4-dimethyl-N-((6-methyl-4-(methylthio)-2-oxo-1,2-dihydropyridin-3-yl)methyl)-7-(2-morpholinopyrimidin-5-yl)benzo[d][1,3]dioxole-5-carboxamide] | ≥ 0.1

same assay, conditions: Homo sapiens, Pfeiffer, 264 h, 11 days culture, read-out: Cell proliferation inhibitory effect (IC50)

SMILES | IC50 [µM]
CSc1cc(C)[nH]c(=O)c1CNC(=O)c1cc(-c2ccc(N3CCSCC3)nc2)c2c(c1C)OC(C)(C1CCN(CC(F)(F)F)CC1)O2 (stereo not drawn) [Compound 34, 2,4-dimethyl-N-((6-methyl-4-(methylthio)-2-oxo-1,2-dihydropyridin-3-yl)methyl)-7-(6-thiomorpholinopyridin-3-yl)-2-(1-(2,2,2-trifluoroethyl)piperidin-4-yl)benzo[d][1,3]dioxole-5-carboxamide] | ≤ 0.01
CSc1cc(C)[nH]c(=O)c1CNC(=O)c1cc(-c2cnc(N(C)C)nc2)c2c(c1C)OC(C)(C1CCN(CC(F)(F)F)CC1)O2 (stereo not drawn) [Compound 35, 7-(2-(dimethylamino)pyrimidin-5-yl)-2,4-dimethyl-N-((6-methyl-4-(methylthio)-2-oxo-1,2-dihydropyridin-3-yl)methyl)-2-(1-(2,2,2-trifluoroethyl)piperidin-4-yl)benzo[d][1,3]dioxole-5-carboxamide] | ≤ 0.01
COc1ccc(-c2cc(C(=O)NCc3c(SC)cc(C)[nH]c3=O)c(C)c3c2OC(C)(C2CCN(CC(F)(F)F)CC2)O3)cn1 (stereo not drawn) [Compound 36, 7-(6-methoxypyridin-3-yl)-2,4-dimethyl-N-((6-methyl-4-(methylthio)-2-oxo-1,2-dihydropyridin-3-yl)methyl)-2-(1-(2,2,2-trifluoroethyl)piperidin-4-yl)benzo[d][1,3]dioxole-5-carboxamide] | ≤ 0.01
CSc1cc(C)[nH]c(=O)c1CNC(=O)c1cc(-c2ccc(N3CC(C)CC(C)C3)nc2)c2c(c1C)OC(C)(C1CCN(CC(F)(F)F)CC1)O2 (stereo not drawn) [Compound 37, 7-(6-(3,5-dimethylpiperidin-1-yl)pyridin-3-yl)-2,4-dimethyl-N-((6-methyl-4-(methylthio)-2-oxo-1,2-dihydropyridin-3-yl)methyl)-2-(1-(2,2,2-trifluoroethyl)piperidin-4-yl)benzo[d][1,3]dioxole-5-carboxamide] | 0.01 to 0.1
CSc1cc(C)[nH]c(=O)c1CNC(=O)c1cc(-c2cnc(N3C[C@@H](C)O[C@@H](C)C3)nc2)c2c(c1C)OC(C)(C1CCN(CC(F)(F)F)CC1)O2 (stereo partly drawn) [Compound 38, 7-(2-((2S,6R)-2,6-dimethylmorpholino)pyrimidin-5-yl)-2,4-dimethyl-N-((6-methyl-4-(methylthio)-2-oxo-1,2-dihydropyridin-3-yl)methyl)-2-(1-(2,2,2-trifluoroethyl)piperidin-4-yl)benzo[d][1,3]dioxole-5-carboxamide] | ≤ 0.01
CSc1cc(C)[nH]c(=O)c1CNC(=O)c1cc(-c2cnc(N3CCCCC3)nc2)c2c(c1C)OC(C)(C1CCN(CC(F)(F)F)CC1)O2 (stereo not drawn) [Compound 39, 2,4-dimethyl-N-((6-methyl-4-(methylthio)-2-oxo-1,2-dihydropyridin-3-yl)methyl)-7-(2-(piperidin-1-yl)pyrimidin-5-yl)-2-(1-(2,2,2-trifluoroethyl)piperidin-4-yl)benzo[d][1,3]dioxole-5-carboxamide] | ≤ 0.01
CSc1cc(C)[nH]c(=O)c1CNC(=O)c1cc(-c2ccc(N3C[C@@H](C)O[C@@H](C)C3)nc2)c2c(c1C)OC(C)(C1CCN(C[C@H](C)O)CC1)O2 (stereo partly drawn) [Compound 40, 7-(6-((2S,6R)-2,6-dimethylmorpholino)pyridin-3-yl)-2-(1-((S)-2-hydroxypropyl)piperidin-4-yl)-2,4-dimethyl-N-((6-methyl-4-(methylthio)-2-oxo-1,2-dihydropyridin-3-yl)methyl)benzo[d][1,3]dioxole-5-carboxamide] | ≤ 0.01

The next lines start with the values.

IC50 [µM] | SMILES
≤ 0.01 | COC(CN1CCC(C2(C)Oc3c(-c4ccc(N5C[C@@H](C)O[C@@H](C)C5)nc4)cc(C(=O)NCc4c(SC)cc(C)[nH]c4=O)c(C)c3O2)CC1)OC (stereo partly drawn) [Compound 41, 2-(1-(2,2-dimethoxyethyl)piperidin-4-yl)-7-(6-((2S,6R)-2,6-dimethylmorpholino)pyridin-3-yl)-2,4-dimethyl-N-((6-methyl-4-(methylthio)-2-oxo-1,2-dihydropyridin-3-yl)methyl)benzo[d][1,3]dioxole-5-carboxamide]
≤ 0.01 | CSc1cc(C)[nH]c(=O)c1CNC(=O)c1cc(-c2ccsc2)c2c(c1C)OC(C)(C1CCC(N(C)C)CC1)O2 (stereo not drawn) [Compound 42, 2-(4-(dimethylamino)cyclohexyl)-2,4-dimethyl-N-((6-methyl-4-(methylthio)-2-oxo-1,2-dihydropyridin-3-yl)methyl)-7-(thiophen-3-yl)benzo[d][1,3]dioxole-5-carboxamide]
≤ 0.01 | CSc1cc(C)[nH]c(=O)c1CNC(=O)c1cc(-c2ccc(N3C[C@@H](C)O[C@@H](C)C3)nc2)c2c(c1C)OC(C)(C1CCN(CC(F)F)CC1)O2 (stereo partly drawn) [Compound 46, 2-(1-(2,2-difluoroethyl)piperidin-4-yl)-7-(6-((2S,6R)-2,6-dimethylmorpholino)pyridin-3-yl)-2,4-dimethyl-N-((6-methyl-4-(methylthio)-2-oxo-1,2-dihydropyridin-3-yl)methyl)benzo[d][1,3]dioxole-5-carboxamide]
≤ 0.01 | CSc1cc(C)[nH]c(=O)c1CNC(=O)c1cc(-c2ccc(N3CCOCC3)nc2)c2c(c1C)OC(C)(C1CCN(CC(F)(F)F)CC1)O2 (stereo not drawn) [Compound 61, 2,4-dimethyl-N-((6-methyl-4-(methylthio)-2-oxo-1,2-dihydropyridin-3-yl)methyl)-7-(6-morpholinopyridin-3-yl)-2-(1-(2,2,2-trifluoro)piperidin-4-yl)benzo[d][1,3]dioxole-5-carboxamide]
≤ 0.01 | CSc1cc(C)[nH]c(=O)c1CNC(=O)c1cc(-c2cnc(N3CCOCC3)nc2)c2c(c1C)OC(C)(C1CCN(CC(F)(F)F)CC1)O2 (stereo not drawn) [Compound 68, 2,4-dimethyl-N-((6-methyl-4-(methylthio)-2-oxo-1,2-dihydropyridin-3-yl)methyl)-7-(2-morpholinopyrimidin-5-yl)-2-(1-(2,2,2-trifluoro)piperidin-4-yl)benzo[d][1,3]dioxole-5-carboxamide]

— patent US20250059180A1 (DONG WHA PHARM. CO., LTD., priority 2022, published 2025)
